Experimental data reported in patent US8613914B2, “Peptidomimetic sulfamide compounds and antiviral uses thereof” (Novartis AG, priority 2009, dated 2013).

Target: HCV NS3-4A serine protease (full-length NS3-4A protein) (Hepatitis C virus genotype 1a (isolate 1) (HCV), UniProt P26664)
Assay: HCV NS3-4A protease assay
Assay type: biochemical, HCV genotype 1a
Conditions: strain HCV-1, fluorogenic peptide substrate, read-out: Protease assay Ex. 12 IC50
Method: The inhibitory activity of certain compounds of Table A against HCV NS3-4A serine protease is determined in a homogenous assay using the full-length NS3-4A protein (genotype 1a, strain HCV-1) and a commercially available internally-quenched fluorogenic peptide substrate as described by Taliani, M., et al. 1996 Anal. Biochem. 240:60-67, which is incorporated by reference in its entirety.

Sequence of HCV NS3-4A serine protease (full-length NS3-4A protein) (P26664 1027-1657): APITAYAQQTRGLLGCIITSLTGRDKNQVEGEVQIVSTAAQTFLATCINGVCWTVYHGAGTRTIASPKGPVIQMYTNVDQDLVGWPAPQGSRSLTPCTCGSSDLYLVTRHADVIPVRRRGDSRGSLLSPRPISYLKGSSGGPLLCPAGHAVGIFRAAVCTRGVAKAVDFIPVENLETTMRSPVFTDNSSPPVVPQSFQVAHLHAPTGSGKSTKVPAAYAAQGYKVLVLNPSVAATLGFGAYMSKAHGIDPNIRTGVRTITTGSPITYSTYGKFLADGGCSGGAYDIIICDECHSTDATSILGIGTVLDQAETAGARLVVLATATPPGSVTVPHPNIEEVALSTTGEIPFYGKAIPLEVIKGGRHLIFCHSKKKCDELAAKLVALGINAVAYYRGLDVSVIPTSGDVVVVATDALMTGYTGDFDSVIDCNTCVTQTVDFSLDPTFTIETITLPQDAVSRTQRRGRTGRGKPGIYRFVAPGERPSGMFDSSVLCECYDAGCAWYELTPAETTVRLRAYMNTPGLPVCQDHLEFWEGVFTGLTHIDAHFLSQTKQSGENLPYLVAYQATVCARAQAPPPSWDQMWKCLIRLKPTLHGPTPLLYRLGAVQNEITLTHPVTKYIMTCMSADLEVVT
Sequence of HCV NS3-4A serine protease (full-length NS3-4A protein) (P26664 1658-1711 partner): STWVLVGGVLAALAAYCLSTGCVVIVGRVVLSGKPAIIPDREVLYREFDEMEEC

| Structure (SMILES) | IC50 [nM] |
| --- | --- |
| C=C[C@@H]1C[C@]1(NC(=O)[C@@H]1C[C@@]2(CN1C(=O)[C@@H](NC(=O)[C@@H](NC(=O)[C@@H]1CCCCN1C(C)C)C1(C)CCCCC1)C1(C)CCOCC1)C(C)(C)C21CCC1)C(=O)NS(=O)(=O)N1CCCC1 [Compound 147, (5R,8S)-7-[(2S)-2-{[(2S)-2-({[(2S)-1-isopropylpiperidin-2-yl]carbonyl}amino)-2-(1-methylcyclohexyl)acetyl]amino}-2-(4-methyltetrahydro-2H-pyran-4-yl)acetyl]-10,10-dimethyl-N-{(1R,2S)-1-[(pyrrolidin-1-ylsulfonyl)carbamoyl]-2-vinylcyclopropyl}-7-azadispiro[3.0.4.1]decane-8-carboxamide] | 1.5 |
| C=C[C@@H]1C[C@]1(NC(=O)[C@@H]1C[C@@]2(CN1C(=O)[C@@H](NC(=O)[C@@H](NC(=O)[C@H]1CCCCN1C(C)C)C1CCCCC1)C(C)(C)C)C(C)(C)C21CCC1)C(=O)NS(=O)(=O)N(CC)CCC [Compound 137, (5R,8S)-7-[(2S)-2-{[(2S)-2-cyclohexyl-2-({[(2R)-1-isopropylpiperidin-2-yl]carbonyl}amino)acetyl]amino}-3,3-dimethylbutanoyl]-N-[(1R,2S)-1-({[ethyl(propyl)amino]sulfonyl}carbamoyl)-2-vinylcyclopropyl]-10,10-dimethyl-7-azadispiro[3.0.4.1]decane-8-carboxamide] | 3.5 |
| C=C[C@@H]1C[C@]1(NC(=O)[C@@H]1C[C@@]2(CN1C(=O)[C@@H](NC(=O)[C@@H](NC(=O)OC(C)(C)C)C(C)(C)C)C(C)(C)C)C(C)(C)C21CCC1)C(=O)NS(=O)(=O)N1CCCC1 [Compound 2, tert-butyl [(1S)-1-{[(1S)-1-{[(5R,8S)-10,10-dimethyl-8-({(1R,2S)-1-[(pyrrolidin-1-ylsulfonyl)carbamoyl]-2-vinylcyclopropyl}carbamoyl)-7-azadispiro[3.0.4.1]dec-7-yl]carbonyl}-2,2-dimethylpropyl]carbamoyl}-2,2-dimethylpropyl]carbamate] | 750 |
| C=C[C@@H]1C[C@]1(NC(=O)[C@@H]1C[C@@]2(CN1C(=O)[C@@H](NC(=O)[C@@H](NC(=O)c1ccccc1NC)C1CCCCC1)C(C)(C)C)C(C)(C)C21CCC1)C(=O)NS(=O)(=O)N1CCCC1 [Compound 182, (5R,8S)-7-{(2S)-2-[(cyclohexyl{[2-(methylamino)benzoyl]amino}acetyl)amino]-3,3-dimethylbutanoyl}-10,10-dimethyl-N-{(1R,2S)-1-[(pyrrolidin-1-ylsulfonyl)carbamoyl]-2-vinylcyclopropyl}-7-azadispiro[3.0.4.1]decane-8-carboxamide] | 70 |
| C=C[C@@H]1C[C@]1(NC(=O)[C@@H]1C[C@@]2(CN1C(=O)[C@@H](NC(=O)[C@@H](NC(=O)[C@@H]1CCCCN1C(C)C)C1CCCCC1)C(C)(C)C)C(C)(C)C21CCC1)C(=O)NS(=O)(=O)N(C)CC1CC1 [Compound 50, (5R,8S)-7-[(2S)-2-{[(2S)-2-cyclohexyl-2-({[(2S)-1-isopropylpiperidin-2-yl]carbonyl}amino)acetyl]amino}-3,3-dimethylbutanoyl]-N-[(1R,2S)-1-({[(cyclopropylmethyl)(methyl)amino]sulfonyl}carbamoyl)-2-vinylcyclopropyl]-10,10-dimethyl-7-azadispiro[3.0.4.1]decane-8-carboxamide] | 3.8 |
| C=C[C@@H]1C[C@]1(NC(=O)[C@@H]1C[C@@]2(CN1C(=O)[C@@H](NC(=O)[C@@H](NC(=O)c1cc3ccccc3n1C)C1CCCCC1)C(C)(C)C)C(C)(C)C21CCC1)C(=O)NS(=O)(=O)N1CCCC1 [Compound 178, (5R,8S)-7-{(2S)-2-[(cyclohexyl{[(1-methyl-1H-indol-2-yl)carbonyl]amino}acetyl)amino]-3,3-dimethylbutanoyl}-10,10-dimethyl-N-{(1R,2S)-1-[(pyrrolidin-1-ylsulfonyl)carbamoyl]-2-vinylcyclopropyl}-7-azadispiro[3.0.4.1]decane-8-carboxamide] | 80 |
| C=C[C@@H]1C[C@]1(NC(=O)[C@@H]1C[C@@]2(CN1C(=O)[C@@H](NC(=O)[C@@H](NC(=O)[C@@H]1CCCCN1CC)C1CCCCC1)C1(C)CCOCC1)C(C)(C)C21CCC1)C(=O)NS(=O)(=O)N(CC)CC [Compound 151, (5R,8S)-7-[(2S)-2-{[(2S)-2-cyclohexyl-2-({[(2S)-1-ethylpiperidin-2-yl]carbonyl}amino)acetyl]amino}-2-(4-methyltetrahydro-2H-pyran-4-yl)acetyl]-N-[(1R,2S)-1-{[(diethylamino)sulfonyl]carbamoyl}-2-vinylcyclopropyl]-10,10-dimethyl-7-azadispiro[3.0.4.1]decane-8-carboxamide] | 2 |
| CC[C@@H]1C[C@]1(NC(=O)[C@@H]1C[C@@]2(CN1C(=O)[C@@H](NC(=O)[C@@H](NC(=O)[C@H]1CCCCN1C(C)C)C1CCCCC1)C(C)(C)C)C(C)(C)C21CCC1)C(=O)NS(=O)(=O)N1CCCC1 [Compound 123, (5R,8S)-7-[(2S)-2-{[(2S)-2-cyclohexyl-2-({[(2R)-1-isopropylpiperidin-2-yl]carbonyl}amino)acetyl]amino}-3,3-dimethylbutanoyl]-N-{(1R,2R)-2-ethyl-1-[(pyrrolidin-1-ylsulfonyl)carbamoyl]cyclopropyl}-10,10-dimethyl-7-azadispiro[3.0.4.1]decane-8-carboxamide] | 8 |
| C=C[C@@H]1C[C@]1(NC(=O)[C@@H]1C[C@@]2(CN1C(=O)[C@@H](NC(=O)[C@@H](NC(=O)[C@H]1CCCCN1C(C)C)C1CCCCC1)C(C)(C)C)C(C)(C)C21CCC1)C(=O)NS(=O)(=O)N(C)C(C)C [Compound 119, (5R,8S)-7-[(2S)-2-{[(2S)-2-cyclohexyl-2-({[(2R)-1-isopropylpiperidin-2-yl]carbonyl}amino)acetyl]amino}-3,3-dimethylbutanoyl]-N-[(1R,2S)-1-({[isopropyl(methyl)amino]sulfonyl}carbamoyl)-2-vinylcyclopropyl]-10,10-dimethyl-7-azadispiro[3.0.4.1]decane-8-carboxamide] | 6.5 |
| C=C[C@@H]1C[C@]1(NC(=O)[C@@H]1C[C@@]2(CN1C(=O)[C@@H](NC(=O)[C@@H](NC(=O)C1CN(C(C)C)C1)C(C)(C)C)C(C)(C)C)C(C)(C)C21CCC1)C(=O)NS(=O)(=O)N1CCCC1 [Compound 23, (5R,8S)-7-[(2S)-2-{[(2S)-2-{[(1-isopropylazetidin-3-yl)carbonyl]amino}-3,3-dimethylbutanoyl]amino}-3,3-dimethylbutanoyl]-10,10-dimethyl-N-{(1R,2S)-1-[(pyrrolidin-1-ylsulfonyl)carbamoyl]-2-vinylcyclopropyl}-7-azadispiro[3.0.4.1]decane-8-carboxamide] | 400 |
| C=C[C@@H]1C[C@]1(NC(=O)[C@@H]1C[C@@]2(CN1C(=O)[C@@H](NC(=O)[C@@H](NC(=O)[C@@H]1CCCN1CC)C1(C)CCCCC1)C1(C)CCCCC1)C(C)(C)C21CCC1)C(=O)NS(=O)(=O)N(CC)CC [Compound 159, (5R,8S)-N-[(1R,2S)-1-{[(diethylamino)sulfonyl]carbamoyl}-2-vinylcyclopropyl]-7-[(2S)-2-{[(2S)-2-({[(2S)-1-ethylpyrrolidin-2-yl]carbonyl}amino)-2-(1-methylcyclohexyl)acetyl]amino}-2-(1-methylcyclohexyl)acetyl]-10,10-dimethyl-7-azadispiro[3.0.4.1]decane-8-carboxamide] | 11 |
| C=C[C@@H]1C[C@]1(NC(=O)[C@@H]1C[C@@]2(CN1C(=O)[C@@H](NC(=O)[C@@H](NC(=O)[C@@H]1CCCN1C(C)C)C1CCCC1)C(C)(C)C)C(C)(C)C21CCC1)C(=O)NS(=O)(=O)N1CCCC1 [Compound 59, (5R,8S)-7-[(2S)-2-{[(2S)-2-cyclopentyl-2-({[(2S)-1-isopropylpyrrolidin-2-yl]carbonyl}amino)acetyl]amino}-3,3-dimethylbutanoyl]-10,10-dimethyl-N-{(1R,2S)-1-[(pyrrolidin-1-ylsulfonyl)carbamoyl]-2-vinylcyclopropyl}-7-azadispiro[3.0.4.1]decane-8-carboxamide] | 3.5 |
| C=C[C@@H]1C[C@]1(NC(=O)[C@@H]1C[C@@]2(CN1C(=O)[C@@H](NC(=O)[C@@H](NC(=O)OC(C)(C)C)C(C)(C)C)C(C)(C)C)C(C)(C)C21CCC1)C(=O)NS(=O)(=O)N1CCOCC1 [Compound 5, tert-butyl [(1S)-1-{[(1S)-1-{[(5R,8S)-10,10-dimethyl-8-({(1R,2S)-1-[(morpholin-4-ylsulfonyl)carbamoyl]-2-vinylcyclopropyl}carbamoyl)-7-azadispiro[3.0.4.1]dec-7-yl]carbonyl}-2,2-dimethylpropyl]carbamoyl}-2,2-dimethylpropyl]carbamate] | 6650 |
| C=C[C@@H]1C[C@]1(NC(=O)[C@@H]1C[C@@]2(CN1C(=O)[C@@H](NC(=O)[C@@H](NC(=O)C1CCN1C(C)(C)C)C1CCCCC1)C(C)(C)C)C(C)(C)C21CCC1)C(=O)NS(=O)(=O)N1CCCC1 (stereo partly drawn) [Compound 40, (5R,8S)-7-[(2S)-2-{[(2S)-2-{[(1-tert-butylazetidin-2-yl)carbonyl]amino}-2-cyclohexylacetyl]amino}-3,3-dimethylbutanoyl]-10,10-dimethyl-N-{(1R,2S)-1-[(pyrrolidin-1-ylsulfonyl)carbamoyl]-2-vinylcyclopropyl}-7-azadispiro[3.0.4.1]decane-8-carboxamide] | 6 |
| C=C[C@@H]1C[C@]1(NC(=O)[C@@H]1C[C@@]2(CN1C(=O)[C@@H](NC(=O)[C@@H](NC(=O)C(C)(C)N1CCCC1)C1CCCCC1)C(C)(C)C)C(C)(C)C21CCC1)C(=O)NS(=O)(=O)N1CCCC1 [Compound 14, (5R,8S)-7-[(2S)-2-({(2S)-2-cyclohexyl-2-[(2-methyl-2-pyrrolidin-1-ylpropanoyl)amino]acetyl}amino)-3,3-dimethylbutanoyl]-10,10-dimethyl-N-{(1R,2S)-1-[(pyrrolidin-1-ylsulfonyl)carbamoyl]-2-vinylcyclopropyl}-7-azadispiro[3.0.4.1]decane-8-carboxamide] | 3 |
